Patent US11872210B2, “Thiol isomerases inhibitors and use thereof” (WESTERN NEW ENGLAND UNIVERSITY, priority 2017, dated 2024)

Tests used:
thioredoxin (TRX) = target: T1, thioredoxin (TRX) (Homo sapiens, UniProt P10599); experiment: Insulin-based turbidometric assay of thiol isomerase inhibitory activity (thioredoxin); assay type: biochemical; conditions: insulin turbidity assay, 6 point dose curve
T1 construct: purchased AbCam (Cambridge Mass.)
T1 sequence (P10599 1-105): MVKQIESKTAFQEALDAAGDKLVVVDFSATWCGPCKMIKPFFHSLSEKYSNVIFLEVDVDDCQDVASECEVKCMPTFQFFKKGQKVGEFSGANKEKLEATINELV
Source text: (§1) Recombinant thiol isomerases were purchased from AbCam (Cambridge Mass.), recombinant insulin (bovine), bacitracin, dithiothreitol (DTT) buffers and all other chemicals were purchased from Sigma Aldrich (St. Louis, Mo.; while 384 well clear bottom plates were purchased from Corning (Corning, N.Y.).
(§2) The catalytic reduction of insulin by thiol isomerases in the presence of DTT results in aggregation of insulin chains. The turbidity of insulin aggregation can be monitored spectrophotometrically at an optical density (OD) at 650 nm. This approach has been used by multiple groups to identify thiol isomerase inhibitors in either a kinetic or endpoint fashion. A final concentration of either 10 μg/mL PDI, 30 μg/mL ERp5, 10 μg/mL ERp72 or 10 μg/mL thioredoxin, 125 μM insulin and 2 mM ethylenediaminetetraacetic acid (EDTA) in 30 μL of 100 mM potassium phosphate buffer was added to each experimental well plate, while negative control wells lacked any thiol isomerase. Lead compounds were diluted in a 6 point dose curve and the turbidity of insulin aggregation was measured kinetically each minute for 75 minutes using a Spectramax M3 plate reader (Molecular Devices, Sunnyvale, Calif.) Specificity assay utilized the insulin turbidity assay as well.

HCT116 cells = experiment: PrestoBlue cell proliferation assay, HCT116; assay type: cell-based, human; conditions: HCT116, colon cancer, 24 hours treatment
Method: (§3) Cells were plated at 6,000 cells/well in a 96-well plate and treated with the indicated concentration of zafirlukast 24 hours later. Cells were allowed to grow for an additional 24 hours before alterations in growth were measured by the PrestoBlue cell proliferation assay in triplicate. Fluorescence readings with an excitation at 570 nm and emission of 600 nm were collected and treated samples were converted to a percentage of the untreated controls. OVCar8 (human ovarian cancer cell line), HCT116 (human colon cancer), HeLa (cervical cancer cell line) and MDA-MB-231 (breast cancer cell line) cell lines were examined for their ability to inhibit cell proliferation. […] Table 1 illustrates the results of a cell proliferation assay testing zafirlukast against OVCar8 cells, HCT116 cells, HeLa cells and MDA-MB-231 cells.

platelets = experiment: α-granule secretion of platelets; assay type: cell-based, human; conditions: 0.1 μM-10 μM
Method: Platelet responses in the presence of zafirlukast, (0.1 μM-10 μM) were tested in a range of platelet functional assays including aggregation, granule secretion and spreading studies.
Flow Cytometry: 5 μL platelets (2×10^8 cells/mL) was added to 42 μL HEPES-buffered saline with 1 mM Ca2+. To this, 0.5 μL zafirlukast (0.6 μM-10 μM) or montelukast (0.6 μM-10 μM) or vehicle (0.1% (v/v) DMSO) was added and incubated for 5 minutes. 1 μL anti-human CD62p (1:500 dilution) and 1 μL anti-fibrinogen FITC conjugate (1:500 dilution) or 2 μL of anti-PAC-1 antibody were added to samples. Platelets were treated with 5 μL CRP-XL (1 ug/mL) or 5 μL Tyrode's for 20 minutes in the dark. Samples were then fixed with 450 μL of 0.2% (v/v) paraformaldehyde and analyzed on an accuri C6 flow cytometer (BD Biosciences, UK), with the threshold set to 20,000. Platelet populations were gated and 10,000 events recorded.

OVCar8 cells = experiment: PrestoBlue cell proliferation assay, OVCar8; assay type: cell-based, human; conditions: OVCar8, ovarian cancer, 24 hours treatment
Method: as §3

ERp57 = target: T2, ERp57 (Homo sapiens, UniProt P30101); experiment: Insulin-based turbidometric assay of thiol isomerase inhibitory activity (ERp57); assay type: biochemical; conditions: insulin turbidity assay, 6 point dose curve
T2 construct: purchased AbCam (Cambridge Mass.)
T2 sequence (P30101 25-505): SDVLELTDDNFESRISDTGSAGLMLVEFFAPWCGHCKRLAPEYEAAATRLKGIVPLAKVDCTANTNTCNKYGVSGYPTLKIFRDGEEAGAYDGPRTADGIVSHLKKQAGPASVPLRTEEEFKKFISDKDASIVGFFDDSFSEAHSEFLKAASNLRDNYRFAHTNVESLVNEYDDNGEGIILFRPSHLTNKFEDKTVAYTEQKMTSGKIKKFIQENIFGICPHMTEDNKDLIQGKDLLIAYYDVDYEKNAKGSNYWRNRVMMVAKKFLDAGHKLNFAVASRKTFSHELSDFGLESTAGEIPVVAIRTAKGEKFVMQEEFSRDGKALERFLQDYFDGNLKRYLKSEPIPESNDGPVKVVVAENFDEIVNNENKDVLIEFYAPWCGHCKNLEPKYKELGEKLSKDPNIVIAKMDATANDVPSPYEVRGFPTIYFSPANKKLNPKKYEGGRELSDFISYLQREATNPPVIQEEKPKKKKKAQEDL

ERp72 = target: T3, ERp72 (Homo sapiens, UniProt P13667); experiment: Insulin-based turbidometric assay of thiol isomerase inhibitory activity (ERp72); assay type: biochemical; conditions: insulin turbidity assay, 6 point dose curve
T3 construct: purchased AbCam (Cambridge Mass.)
T3 sequence (P13667 21-645): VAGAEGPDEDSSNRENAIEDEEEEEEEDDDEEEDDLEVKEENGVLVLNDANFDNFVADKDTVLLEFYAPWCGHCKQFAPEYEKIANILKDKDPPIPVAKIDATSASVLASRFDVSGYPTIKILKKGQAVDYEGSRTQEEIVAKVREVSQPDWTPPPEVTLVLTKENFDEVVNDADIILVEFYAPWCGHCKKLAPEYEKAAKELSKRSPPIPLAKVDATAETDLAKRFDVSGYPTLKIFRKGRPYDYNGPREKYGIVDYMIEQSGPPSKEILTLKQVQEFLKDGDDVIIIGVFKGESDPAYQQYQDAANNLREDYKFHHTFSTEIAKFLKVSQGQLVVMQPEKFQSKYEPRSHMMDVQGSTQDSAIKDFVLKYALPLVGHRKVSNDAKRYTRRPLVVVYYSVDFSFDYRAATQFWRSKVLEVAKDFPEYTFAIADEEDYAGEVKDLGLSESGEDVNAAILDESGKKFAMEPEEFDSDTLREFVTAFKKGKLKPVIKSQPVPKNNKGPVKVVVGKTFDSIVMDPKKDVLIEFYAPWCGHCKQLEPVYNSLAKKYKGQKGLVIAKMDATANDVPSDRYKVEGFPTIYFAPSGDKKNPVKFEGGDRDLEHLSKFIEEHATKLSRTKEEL
Source text: as §1, §2

Compound: COc1cc(C(=O)NS(=O)(=O)c2ccccc2C)ccc1Cc1cn(C)c2ccc(NC(=O)OC3CCCC3)cc12 [zafirlukast, 4-(5-cyclopentyloxycarbonylamino-1-methylindol-3-ylmethyl)-3-methoxy-N-o-tolylsulfonylbenzamide]
- inhibitory range on TRX (thioredoxin (TRX)): 10 to 300 µM
- IC50 (HCT116 cells): 5 µM
- IC50 (HCT116 cells; Homo sapiens, HCT-116, 24 h): 5 to 10 µM
- α-granule secretion (in words) (platelets): inhibit
- IC50 (OVCar8 cells; Homo sapiens, OVCAR-8, 24 h): 5 to 10 µM
- IC50 (OVCar8 cells): 6 µM
- inhibitory range on ERp57 (ERp57): 30 to 300 µM
- inhibitory range on ERp72 (ERp72): 10 to 300 µM
